According to patent US6992079B2, “Substituted 11-phenyl-dibenzazepine compounds useful for the treatment or prevention of diseases characterized by abnormal cell proliferation” (President Fellows of Harvard College, priority 1997, dated 2006):

What was measured:
HCC-2998 = assay: In-Vitro Testing SRB panel: Colon Cancer; type: cell-based
Description: The dose-response curve page of the data package is created by plotting the PGs against the log10 of the corresponding concentration for every cell line. The cell line curves are grouped by subpanel. Horizontal lines are provided at the PG values of […]. The concentrations corresponding to points where the curves cross these lines are the GI50, TGI, and LC50, respectively.

[1] = system: cyclin D1 and E expression; assay: Cyclin expression and cell cycle in vitro; type: cell-based
[2] = system: Ca^2+ from intracellular pools / capacitative Ca^2+ influx; assay: Intracellular Ca2+ release and capacitative Ca2+ influx; type: cell-based; settings: in vitro
[3] = system: dominant negative PKR mutant cells; assay: Growth of dominant negative PKR mutant cells; type: cell-based; settings: FIG. 12
HCT-15 = assay: SRB antiproliferative assay; type: cell-based; settings: Homo sapiens, HCT-15 (Colon), 5% FCS/5 day incubation
Description: (§1) The cells were passaged using Trypsin (Gibco).

HTB174 = assay: SRB antiproliferative assay; type: cell-based; settings: Homo sapiens, HTB174 (Lung), 5% FCS/5 day incubation
Description: as §1

ACHN = assay: SRB antiproliferative assay; type: cell-based; settings: Homo sapiens, ACHN (Renal), 5% FCS/5 day incubation
Description: as §1

HUVEC = assay: SRB antiproliferative assay; type: cell-based; settings: HUVEC (Normal human), 5% FCS/5 day incubation
Description: as §1

SK-MEL-28 = assay: SRB antiproliferative assay; type: cell-based; settings: Homo sapiens, SK-MEL-28 (Melanoma), 5% FCS/5 day incubation
Description: as §1

CaSki = assay: SRB antiproliferative assay; type: cell-based; settings: Homo sapiens, Ca-Ski, CaSki (Cervical), 5% FCS/5 day incubation
Description: as §1

DU-145 = assay: SRB antiproliferative assay; type: cell-based; settings: Homo sapiens, DU-145 (Prostate), 5% FCS/5 day incubation
Description: as §1

L929 = assay: SRB antiproliferative assay; type: cell-based; settings: L929 (Normal mouse), 5% FCS/5 day incubation
Description: as §1

3T3 = assay: SRB antiproliferative assay; type: cell-based; settings: NIH3T3, 3T3 (Normal mouse), 5% FCS/5 day incubation
Description: as §1

GM = assay: SRB antiproliferative assay; type: cell-based; settings: GM (Normal human), 5% FCS/5 day incubation
Description: as §1

SK-OV-3 = assay: SRB antiproliferative assay; type: cell-based; settings: Homo sapiens, SK-OV-3 (Ovary), 5% FCS/5 day incubation
Description: as §1

[4] = system: human melanoma MM-RU cells; assay: Lung metastases in MM-RU tumor-bearing mice; type: in vivo, nude mice
[5] = system: PC-3 human prostate carcinoma; assay: Mouse xenograft tumor growth; type: in vivo
[6] = MM-RU tumor-bearing mice, 80 mg/kg/d × 5/w × 3 s.c.
[7] = MM-RU tumor-bearing mice, 100 mg/kg/d × 28, p.o.

## COc1cccc2c1C(c1ccccc1Cl)c1cc(Cl)ccc1N(C(=O)c1ccc([N+](=O)[O-])cc1)C2 (stereo not drawn) [Compound 31]
HCC-2998; HCC-2998
  TGI: >1.00E−04 Molar
HCC-2998; HCC-2998, log10 conc -4 Molar
  Percent Growth: 33%
HCC-2998; HCC-2998, log10 conc -5 Molar
  Percent Growth: 45%
HCC-2998; HCC-2998, log10 conc -6 Molar
  Percent Growth: 59%
HCC-2998; HCC-2998, log10 conc -7 Molar
  Percent Growth: 93%
HCC-2998; HCC-2998, log10 conc -8 Molar
  Percent Growth: 104%
HCC-2998; Homo sapiens, HCC 2998
  GI50: 4340 nM
HCC-2998; Homo sapiens, HCC-2998, read-out: LC50 (the source's name)
  CC50: > 100000 nM

## O=C(c1ccc([N+](=O)[O-])cc1)N1Cc2ccccc2C(c2ccccc2Cl)c2ccccc21 (stereo not drawn) [Compound 28, N-(4′-Nitrobenzoyl)-11-(2′-chlorophenyl)-5,6-dihydro-11H-dibenz[b,e]azepine]
[1]
  cell cycle arrest: induction of G0-G1 cell cycle arrest
  cyclin D1 and E expression: inhibit cyclin D1 and E expression
[2]
  Ca^2+ release from intracellular pools: releases Ca^2+ from intracellular pools
  capacitative Ca^2+ influx into the cell: inhibits capacitative Ca^2+ influx
[3]
  resistance of dominant negative PKR mutant cells to compound: resistance of dominant negative PKR mutant cells
HCT-15
  IC50: 400 nM
HTB174
  IC50: 100 nM
ACHN
  IC50: 700 nM
HUVEC
  IC50: 700 nM
SK-MEL-28
  IC50: 400 nM
CaSki
  IC50: 500 nM
DU-145
  IC50: 900 nM
L929
  IC50: 600 nM
3T3
  IC50: > 1000 nM
GM
  IC50: 900 nM
SK-OV-3
  IC50: > 1000 nM
[4]; [6]
  Body Wt. Change: 107%
  Liver Wt.: 0.97 ± 0.12 gram
  Lung Metastases: 46 ± 12
[4]; [7]
  Body Wt. Change: 105%
  Liver Wt.: 1.00 ± 0.09 gram
  Lung Metastases: 45 ± 10
[4]; nude mice, MM-RU cells, oral administration or subcutaneous injection
  Lung Metastases: lung metastases were significantly reduced
[5]; PC-3 mouse xenograph
  apparent toxicity: no sign of apparent toxicity
[5]; mouse xenograph
  growth of PC-3 human prostate carcinoma: significant inhibitory effects on the growth
